In ChEMBL document CHEMBL5380843 (J Med Chem, 2023):

Legend:
[1] = Resistant factor, ratio of EC50 for antiviral activity against HIV-1 IIIB harboring reverse transcriptase E138K mutant to EC50 for antiviral activity against wild type HIV-1 IIIB; format: functional
[2] = Resistant factor, ratio of EC50 for antiviral activity against HIV-1 IIIB harboring reverse transcriptase Y188L mutant to EC50 for antiviral activity against wild type HIV-1 IIIB; format: functional
[3] = tested on: Human immunodeficiency virus 1; experiment: Antiviral activity against wild type HIV-1 IIIB harboring reverse transcriptase K103N mutant infected in human MT4 cells assessed as protection against virus-induced cytopathic effect incubated for 5 days by MTT assay; format: functional, organism-based; settings: Human immunodeficiency virus 1, IIIB, MT4, 120 h
[4] = Resistant factor, ratio of EC50 for antiviral activity against HIV-1 IIIB harboring reverse transcriptase Y181C mutant to EC50 for antiviral activity against wild type HIV-1 IIIB; format: functional
[5] = tested on: Human immunodeficiency virus 1; experiment: Antiviral activity against wild type HIV-1 IIIB harboring reverse transcriptase Y188L mutant infected in human MT4 cells assessed as protection against virus-induced cytopathic effect incubated for 5 days by MTT assay; format: functional, organism-based; settings: Human immunodeficiency virus 1, IIIB, MT4, 120 h
[6] = tested on: Human immunodeficiency virus 1; experiment: Antiviral activity against wild type HIV-1 IIIB harboring reverse transcriptase […] mutant infected in human MT4 cells assessed as protection against virus-induced cytopathic effect incubated for 5 days by MTT assay; format: functional, organism-based; settings: Human immunodeficiency virus 1, IIIB, MT4, 120 h
[7] = tested on: Human immunodeficiency virus 1; experiment: Antiviral activity against wild type HIV-1 IIIB harboring reverse transcriptase Y181C mutant infected in human MT4 cells assessed as protection against virus-induced cytopathic effect incubated for 5 days by MTT assay; format: functional, organism-based; settings: Human immunodeficiency virus 1, IIIB, MT4, 120 h
[8] = Cytotoxicity against human MT4 cells assessed as reduction in cell viability incubated for 5 days by MTT assay; format: toxicity, cell-based; settings: time 5 day
[9] = Resistant factor, ratio of EC50 for antiviral activity against HIV-1 IIIB harboring reverse transcriptase […] mutant to EC50 for antiviral activity against wild type HIV-1 IIIB; format: functional
[10] = biological target: Human immunodeficiency virus type 1 reverse transcriptase (Human immunodeficiency virus 1, UniProt Q72547); experiment: Inhibition of recombinant wild type HIV-1 reverse transcriptase using DNA/RNA as substrate incubated for 40 mins by Pico-green dye based spectrofluorometric analysis
[11] = tested on: Human immunodeficiency virus 1; experiment: Antiviral activity against wild type HIV-1 IIIB harboring reverse transcriptase E138K mutant infected in human MT4 cells assessed as protection against virus-induced cytopathic effect incubated for 5 days by MTT assay; format: functional, organism-based; settings: Human immunodeficiency virus 1, IIIB, MT4, 120 h
[12] = Resistant factor, ratio of EC50 for antiviral activity against HIV-1 IIIB harboring reverse transcriptase K103N mutant to EC50 for antiviral activity against wild type HIV-1 IIIB; format: functional
[13] = tested on: Human immunodeficiency virus 1; experiment: Antiviral activity against wild type HIV-1 IIIB infected in human MT4 cells assessed as protection against virus-induced cytopathic effect incubated for 5 days by MTT assay; format: functional, organism-based; settings: Human immunodeficiency virus 1, IIIB, MT4, 120 h
[14] = Selectivity index, ratio of CC50 for cytotoxicity against human MT4 cells to EC50 for antiviral activity against wild type HIV-1 IIIB infected in human MT4 cells; format: toxicity, cell-based; settings: read-out: Ratio CC50/EC50

| Structure (SMILES) | Ratio EC50 [1] | Ratio EC50 [2] | EC50 [3] | Ratio EC50 [4] | EC50 [5] | EC50 [6] | EC50 [7] | CC50 at 120 h [8] | Ratio EC50 [9] | IC50 [10] | EC50 [11] | Ratio EC50 [12] | EC50 [13] | selectivity ratio [14] |
| --- | --- | --- | --- | --- | --- | --- | --- | --- | --- | --- | --- | --- | --- | --- |
| Cc1cc(-c2ccc(C#N)cc2)cc(C)c1Oc1nc(Nc2ccc(C#N)cc2)ncc1C(=O)NC1CC1 | 2.8 | 19 | 32 nM | 14 | 209 nM | 51 nM | 157 nM | 116000 nM | 4.6 | 111 nM | 31 nM | 2.9 | 11 nM | 10600 |
| Cc1cc(C#N)cc(C)c1Oc1nc(Nc2ccc(C#N)cc2)nc(N)c1Br [ETRAVIRINE] |  |  | 3 nM |  | 20 nM | 7 nM | 12 nM | > 4610 nM |  |  | 7 nM |  | 6 nM |  |
| Cc1cc(-c2ccc(C#N)cc2)cc(C)c1Oc1nc(Nc2ccc(C#N)cc2)ncc1C(=O)NCCCO | 0.9 | 8.9 | 9 nM | 9.1 | 50 nM | 15 nM | 51 nM | 31400 nM | 2.7 | 71 nM |  | 1.6 | 5 nM | 5590 |
| Cc1cc(/C=C/C#N)cc(C)c1Nc1ccnc(Nc2ccc(C#N)cc2)n1 [RILPIVIRINE] |  |  | 1 nM |  |  | 2 nM | 4 nM |  |  |  |  |  |  |  |
| CCNC(=O)c1cnc(Nc2ccc(C#N)cc2)nc1Oc1c(C)cc(-c2ccc(C#N)cc2)cc1C | 4.2 | 14 | 13 nM | 10 | 95 nM | 25 nM | 68 nM | 151000 nM | 3.7 | 135 nM | 28 nM | 1.9 | 6 nM | 22500 |
| N#Cc1ccc(Nc2ncc(C(N)=O)c(Oc3c(F)cc(-c4ccc(C#N)cc4)cc3F)n2)cc1 | 5.3 | 1178 | 175 nM | 362 | 35300 nM | 1210 nM | 10900 nM | > 53400 nM | 40 | 21 nM | 159 nM | 5.8 | 30 nM | > 1780 |
| N#Cc1ccc(Nc2nccc(Oc3ccc4cc(C#N)ccc4c3Br)n2)cc1 |  |  |  |  |  |  |  | 283000 nM |  |  |  |  |  | 181000 |
| Cc1cc(-c2ccc(C#N)cc2)ccc1Oc1nc(Nc2ccc(C#N)cc2)ncc1C(N)=O | 3.7 | 230 | 94 nM | 140 | 7120 nM | 994 nM | 4340 nM | > 280000 nM | 32 | 19 nM | 115 nM | 3 | 31 nM | > 9000 |
| Cc1cc(-c2ccc(C#N)cc2)cc(C)c1Oc1nc(Nc2ccc(C#N)cc2)ncc1C(=O)NCC1CC1 | 2.4 | 19 | 445 nM | 11 | 1900 nM | 872 nM | 1160 nM | 210000 nM | 8.5 | 294 nM | 248 nM | 4.4 | 102 nM | 2060 |
| Cc1cc(-c2ccc(C#N)cc2)cc(C)c1Oc1nc(Nc2ccc(C#N)cc2)ncc1C(=O)NC1CCCC1 | 4 | 32 | 960 nM | 23 | 4650 nM | 1780 nM | 3350 nM | > 236000 nM | 12 | 329 nM | 573 nM | 6.6 | 145 nM | > 1630 |
| O=C1Nc2ccc(Cl)cc2[C@@](C#CC2CC2)(C(F)(F)F)O1 [EFAVIRENZ] |  |  | 102 nM |  | 290 nM | 44 nM | 7 nM | > 6340 nM |  |  | 6 nM |  | 7 nM |  |
| C#CCNC(=O)c1cnc(Nc2ccc(C#N)cc2)nc1Oc1c(C)cc(-c2ccc(C#N)cc2)cc1C | 2.3 | 11 | 9 nM | 5.5 | 59 nM | 16 nM | 31 nM | 145000 nM | 2.9 | 72 nM | 13 nM | 1.6 | 5 nM | 25700 |
| N#Cc1ccc(Nc2ncc(C(N)=O)c(Oc3ccc(-c4ccc(C#N)cc4)cc3Cl)n2)cc1 | 8 | 2150 | 5530 nM | 1261 | 219000 nM | 76000 nM | 129000 nM | > 270000 nM | 746 | 28 nM | 821 nM | 54 | 102 nM | > 2650 |
| Cc1cc(-c2ccc(C#N)cc2)cc(C)c1Oc1nc(Nc2ccc(C#N)cc2)ncc1C(N)=O | 2.4 | 9.4 | 26 nM | 13 | 150 nM | 22 nM | 206 nM | > 43400 nM | 1.4 | 26 nM | 39 nM | 1.6 | 16 nM | > 2760 |
| CCONC(=O)c1cnc(Nc2ccc(C#N)cc2)nc1Oc1c(C)cc(-c2ccc(C#N)cc2)cc1C | 1.3 | 25 | 12 nM | 8.2 | 138 nM | 34 nM | 46 nM | > 248000 nM | 6.1 | 94 nM | 7 nM | 2.1 | 5 nM | > 44200 |
| Cc1cc(-c2ccc(C#N)cc2)cc(C)c1Oc1nc(Nc2ccc(C#N)cc2)ncc1C(=O)NC(C)C | 1.9 | 15 | 82 nM | 9 | 563 nM | 144 nM | 334 nM | 64700 nM | 3.9 | 199 nM | 71 nM | 2.2 | 37 nM | 1750 |
| COc1cc(-c2ccc(C#N)cc2)ccc1Oc1nc(Nc2ccc(C#N)cc2)ncc1C(N)=O | 1 | 11 | 4 nM | 7.6 | 191 nM | 6 nM | 136 nM | > 276000 nM | 0.3 | 28 nM |  | 0.2 | 18 nM | > 15300 |
| Cc1ccnc2c1NC(=O)c1cccnc1N2C1CC1 [NEVIRAPINE] |  |  | > 10100 nM |  | > 15900 nM | 2100 nM | > 15900 nM | > 15000 nM |  |  | 210 nM |  |  |  |
